Km and kcat data for four molecules are collected here from paper PMC11528125, “Characterization of O-methyltransferases in the biosynthesis of phenylphenalenone phytoalexins based on the telomere-to-telomere gapless genome of Musella lasiocarpa” (Horticulture Research, 2024).

What all share (assay): MTase-Glo methyltransferase assay (SAH luminescence), Michaelis-Menten fit
Type in all cases: biochemical, Musella lasiocarpa

The test system of one series is T1, Ml01G0494.
T1 construct: MBP fusion from pMAL-c4x (EcoRI/SalI), E. coli BL21 (DE3), purified
The conditions noted are these: 2 mM SAM, 45°C, 30 min; Tris-HCl; read-out: apparent Km.

A further series concerns T2, Ml08G0855.
T2 construct: MBP fusion from pMAL-c4x (EcoRI/SalI), E. coli BL21 (DE3), purified
The conditions noted are these: 2 mM SAM, 45°C, 30 min; Tris-HCl; read-out: apparent Km.

Substrate in series [1]: O=C1C(O)=Cc2cccc3ccc(-c4ccc(O)cc4)c1c23
The conditions noted are these: 2 mM SAM, 45°C, 30 min, Tris-HCl. The text has this:
(§1) MTase-Glo methyltransferase assay (SAH luminescence), Michaelis-Menten fit on Ml04G2958 | The apparent Kcat/Km values of Ml01G0494, Ml04G2958, and Ml08G0855 for MLT3 | the apparent Kcat/Km values of Ml01G0494, Ml04G2958, and Ml08G0855 for MLT4

Substrate in series [2]: O=C1C(O)=Cc2cccc3ccc(-c4ccccc4)c1c23
The conditions noted are these: 2 mM SAM, 45°C, 30 min, Tris-HCl.
Excerpt: as §1

Take `O=C1C(O)=Cc2c(-c3ccc(O)c(O)c3)ccc3cccc1c23` [MLT9]: the Km with Ml01G0494 amounted to 971 µM; in the series with Ml08G0855, 81.9 µM.
For `O=C1C(O)=Cc2cccc3ccc(-c4ccc(O)cc4)c1c23` [MLT3], the Km in the series on Ml01G0494 amounted to 60.4 ± 16.6 µM; with Ml08G0855, 111 ± 27.4 µM.
As to `O=C1C(O)=Cc2cccc3ccc(-c4ccccc4)c1c23` [MLT4], the Km with Ml01G0494 came to 8.51 ± 0.13 µM; in the series on Ml08G0855, 37.3 ± 10.7 µM.

B1: Ml04G2958 (Musella lasiocarpa) (protein)
chain: MAGPHVVDAVGEHSEPYKSASRAHHHHYRHHSSLPLRTMGSVRAAAAALQPSPEEDEEACLQAGQLVSSSVLPMTLKAAIELQLLEIIVGAGPGARLSPADVAAQLPTTNPQAAAMVDRILRLLAAYGIVGCSVEAGPDGRPCRKYGAAPVCKYLTRNEDGVSFAALSLMNQDKVLMESWYHLKDAVLEGGIPFNKAYGMTAFEYHGTDPRFNKVFNEGMRSHSIIITKKLLQVYRGFDDVKVLVDVGGGTGATLHMITSTHPHILGINYDLPHVISDAPPLPGVEHVSGDMFESVPGGDAILMKWILHDWSDEHCAKILKNCWKALPEKGKLIAVECVLPVVPEPSLRTQSVCHVDLIMLAHNPGGKERTEMEFEELAKQAGFSGFKPTYVYASTWALEFTK
notes: MBP fusion from pMAL-c4x (EcoRI/SalI), E. coli BL21 (DE3), purified
Turning to B1, in series [1], the Km was 69.94 ± 14.71 µM and the kcat came to 0.0005 s⁻¹. Moreover, in series [2], the Km turned out to be 5.30 ± 0.68 µM and the kcat was found to be 0.00033 s⁻¹.

What is called Km is the concentration of substrate that gives half-maximal velocity. What is called kcat is the maximal rate divided by the concentration of active sites.
